Test results from PMC6001238, “Iterative Chemical Engineering of Vancomycin Leads to Novel Vancomycin Analogs With a High in Vitro Therapeutic Index” (Frontiers in Microbiology, 2018).
Values after ≈ are worked out from the molar mass of the structure shown.

Legend:
[1] = system: E. faecalis VRE 37; assay: MIC, broth microdilution, vancomycin-resistant E. faecalis VRE 37 (VanA); assay type: cell-based, Enterococcus faecalis; settings: for MIC: Enterococcus faecalis VRE 37 (vancomycin-resistant), read-out: MIC
Procedure, shortened: (§1)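 MIC values come from broth microdilution run to CLSI susceptibility-testing standards. Ultrapure water and uninoculated broth served as controls. In one series, vancomycin at a final 10 μM was co-dosed with the analogue or comparator antibiotic.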

[2] = system: S. aureus VRSA; assay: MIC, broth microdilution, vancomycin-resistant S. aureus (VRSA); assay type: cell-based, Staphylococcus aureus; settings: for MIC: Staphylococcus aureus VRSA, read-out: MIC; for MIC-fold improvement vs. vancomycin: VRSA, ratio of MIC of vancomycin and MIC of analogue
Procedure, shortened: as §1

[3] = system: human cervix carcinoma (HeLa) cells; assay: Cytostatic activity, HeLa cell proliferation; assay type: cell-based; settings: mean ± SD of three experiments; highest concentration tested 250 µM; 4 days; read-out: Toxicity (IC50) HeLa
Procedure, shortened: (§2)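 Coulter counter cell counts after 37°C culture with compound; IC50 = concentration giving 50% growth inhibition vs negative control. Incubation: L1210 2 d, CEM 3 d, HeLa 4 d. Suspension density before mixing with an equal volume of dilution: 300,000–500,000 cells/mL.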

[4] = system: MRSA KS6; assay: MIC, broth microdilution, MRSA KS6; assay type: cell-based, Staphylococcus aureus; settings: for MIC-fold improvement vs. vancomycin: MRSA KS6, ratio of MIC of vancomycin and MIC of analogue; for MIC: Staphylococcus aureus MRSA KS6, read-out: MIC
Procedure, shortened: as §1

[5] = system: MRSA KS89; assay: MIC, broth microdilution, MRSA KS89; assay type: cell-based, Staphylococcus aureus; settings: for MIC-fold improvement vs. vancomycin: MRSA KS8, ratio of MIC of vancomycin and MIC of analogue; for MIC: Staphylococcus aureus MRSA KS8, read-out: MIC
Procedure, shortened: as §1

[6] = system: MRSA KS1; assay: MIC, broth microdilution, MRSA KS1; assay type: cell-based, Staphylococcus aureus; settings: for MIC-fold improvement vs. vancomycin: MRSA KS1, ratio of MIC of vancomycin and MIC of analogue; for MIC: Staphylococcus aureus MRSA KS1, read-out: MIC
Procedure, shortened: as §1

[7] = system: MRSA KS2; assay: MIC, broth microdilution, MRSA KS2; assay type: cell-based, Staphylococcus aureus; settings: for MIC-fold improvement vs. vancomycin: MRSA KS2, ratio of MIC of vancomycin and MIC of analogue; for MIC: Staphylococcus aureus MRSA KS2, read-out: MIC
Procedure, shortened: as §1

[8] = system: E. faecalis VRE 6; assay: MIC, broth microdilution, vancomycin-resistant E. faecalis VRE 6 (VanA); assay type: cell-based, Enterococcus faecalis; settings: for MIC: Enterococcus faecalis VRE 6 (vancomycin-resistant), read-out: MIC; for MIC-fold improvement vs. vancomycin: VRE 6, ratio of MIC of vancomycin and MIC of analogue
Procedure, shortened: as §1

[9] = system: E. faecalis VRE 29; assay: MIC, broth microdilution, vancomycin-resistant E. faecalis VRE 29 (VanA); assay type: cell-based, Enterococcus faecalis; settings: for MIC: Enterococcus faecalis VRE 29 (vancomycin-resistant), read-out: MIC; for MIC-fold improvement vs. vancomycin: VRE 29, ratio of MIC of vancomycin and MIC of analogue
Procedure, shortened: as §1

[10] = system: human T-lymphocyte (CEM) cells; assay: Cytostatic activity, CEM cell proliferation; assay type: cell-based; settings: mean ± SD of three experiments; highest concentration tested 250 µM; 3 days; read-out: Toxicity (IC50) CEM
Procedure, shortened: as §2

[11] = system: S. aureus VSSA (ATCC 6538); assay: MIC, broth microdilution, vancomycin-sensitive S. aureus (VSSA/MSSA, ATCC 6538); assay type: cell-based, Staphylococcus aureus; settings: for MIC: Staphylococcus aureus VSSA, read-out: MIC; for MIC-fold improvement vs. vancomycin: VSSA, ratio of MIC of vancomycin and MIC of analogue
Procedure, shortened: as §1

[12] = system: S. aureus VISA/HIP5827; assay: MIC, broth microdilution, vancomycin-intermediate S. aureus VISA HIP5827; assay type: cell-based, Staphylococcus aureus; settings: for MIC: Staphylococcus aureus VISA/HIP5827, read-out: MIC; for MIC-fold improvement vs. vancomycin: VISA/HIP5827, ratio of MIC of vancomycin and MIC of analogue
Procedure, shortened: as §1

[13] = system: Murine leukemia (L1210) cells; assay: Cytostatic activity, L1210 cell proliferation; assay type: cell-based; settings: mean ± SD of three experiments; highest concentration tested 250 µM; 2 days; read-out: Toxicity (IC50) L1210
Procedure, shortened: as §2

[14] = system: E. faecalis VRE 53; assay: MIC, broth microdilution, vancomycin-resistant E. faecalis VRE 53 (VanA); assay type: cell-based, Enterococcus faecalis; settings: for MIC: Enterococcus faecalis VRE 53 (vancomycin-resistant), read-out: MIC; for MIC-fold improvement vs. vancomycin: VRE 53, ratio of MIC of vancomycin and MIC of analogue
Procedure, shortened: as §1

[15] = system: E. faecalis VSE 1; assay: MIC, broth microdilution, vancomycin-sensitive E. faecalis (VSE 1); assay type: cell-based, Enterococcus faecalis; settings: for MIC: Enterococcus faecalis VSE 1 (vancomycin-sensitive), read-out: MIC; for MIC-fold improvement vs. vancomycin: VSE 1, ratio of MIC of vancomycin and MIC of analogue
Procedure, shortened: as §1

[16] = system: L1210, CEM and HeLa cell lines; assay: Cytostatic activity, average or summary over L1210, CEM and HeLa; assay type: cell-based; settings: average of L1210, CEM and HeLa; read-out: Toxicity (IC50) Average
Procedure, shortened: as §2

Row | MIC [1] [µM] | MIC [2] [µM] | MIC-fold improvement vs. vancomycin [2] | MIC-fold improvement vs. vancomycin [4] | MIC [4] [µM] | MIC-fold improvement vs. vancomycin [5] | MIC [5] [µM] | MIC-fold improvement vs. vancomycin [6] | MIC [6] [µM] | MIC-fold improvement vs. vancomycin [7] | MIC [7] [µM] | MIC [8] [µM] | MIC-fold improvement vs. vancomycin [8] | MIC [9] [µM] | MIC-fold improvement vs. vancomycin [9] | MIC [11] [µM] | MIC-fold improvement vs. vancomycin [11] | MIC [12] [µM] | SMILES | IC50 [3] [µM] | IC50 [10] [µM] | further results
1 | 12.5 (≈ 20.4 µg/mL) | 6.25 (≈ 10.2 µg/mL) | 16 | 2 | 0.39 (≈ 0.636 µg/mL) | 2 | 0.39 (≈ 0.636 µg/mL) | 2 | 0.39 (≈ 0.636 µg/mL) | 2 | 0.39 (≈ 0.636 µg/mL) | 6.25 (≈ 10.2 µg/mL) | 32 | 12.5 (≈ 20.4 µg/mL) | 32 | 0.78 (≈ 1.27 µg/mL) | 1 | 1.56 (≈ 2.55 µg/mL) | CN[C@H](CC(C)C)C(=O)N[C@H]1C(=O)N[C@@H](CC(N)=O)C(=O)N[C@H]2C(=O)N[C@H]3C(=O)N[C@H](C(=O)N[C@H](C(=O)NCC(=O)Nc4cccc5ccccc45)c4cc(O)cc(O)c4-c4cc3ccc4O)[C@H](O)c3ccc(c(Cl)c3)Oc3cc2cc(c3O[C@@H]2O[C@H](CO)[C@@H](O)[C@H](O)[C@H]2O[C@H]2C[C@](C)(N)[C@H](O)[C@H](C)O2)Oc2ccc(cc2Cl)[C@H]1O [Vanc-41] | > 250 | > 250 | MIC-fold improvement vs. vancomycin [12]: 4; IC50 [13]: > 250 µM; MIC [14]: 25 µM (≈ 40.8 µg/mL); MIC-fold improvement vs. vancomycin [14]: 16; MIC [15]: 0.39 µM (≈ 0.636 µg/mL); MIC-fold improvement vs. vancomycin [15]: 4; IC50 [16]: > 250 µM
2 | 25 (≈ 40.4 µg/mL) | 12.5 (≈ 20.2 µg/mL) | 8 | 0.25 | 3.13 (≈ 5.06 µg/mL) | 1 | 0.78 (≈ 1.26 µg/mL) | 1 | 0.78 (≈ 1.26 µg/mL) | 1 | 0.78 (≈ 1.26 µg/mL) | 12.5 (≈ 20.2 µg/mL) | 16 | 25 (≈ 40.4 µg/mL) | 16 | 0.78 (≈ 1.26 µg/mL) | 1 | 1.56 (≈ 2.52 µg/mL) | CN[C@H](CC(C)C)C(=O)N[C@H]1C(=O)N[C@@H](CC(N)=O)C(=O)N[C@H]2C(=O)N[C@H]3C(=O)N[C@H](C(=O)N[C@H](C(=O)NCC(=O)Nc4ccc(Cl)cn4)c4cc(O)cc(O)c4-c4cc3ccc4O)[C@H](O)c3ccc(c(Cl)c3)Oc3cc2cc(c3O[C@@H]2O[C@H](CO)[C@@H](O)[C@H](O)[C@H]2O[C@H]2C[C@](C)(N)[C@H](O)[C@H](C)O2)Oc2ccc(cc2Cl)[C@H]1O [Vanc-44] | 108 ± 38 | ≥ 250 | MIC-fold improvement vs. vancomycin ([1]; VRE 37, ratio of MIC of vancomycin and MIC of analogue): 16; MIC-fold improvement vs. vancomycin [12]: 4; IC50 [13]: ≥ 250 µM; MIC [14]: 50 µM (≈ 80.8 µg/mL); MIC-fold improvement vs. vancomycin [14]: 8; MIC [15]: 0.78 µM (≈ 1.26 µg/mL); MIC-fold improvement vs. vancomycin [15]: 2; IC50 [16]: 203 µM
